This is an account of results in paper PMC6934184, “Selective DNA-PKcs inhibition extends the therapeutic index of localized radiotherapy and chemotherapy” (The Journal of Clinical Investigation, 2019).

The target in the assay is T1, TTK (Homo sapiens, UniProt P33981).
T1 construct: purchased Thermo Fisher Scientific (Life Technologies) SelectScreen
In words: SelectScreen LanthaScreen. Type of assay: binding. To be noted: read-out: % displacement. In outline:
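Percent values come from Thermo SelectScreen profiling of NU5455, combining activity and binding assays. CSF1R was run in Z'LYTE format at Km app ATP, and CAMK1 in Adapta format with ATP listed at 10.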

The structures appear in SMILES notation.

T1 sequence (P33981 whole entry): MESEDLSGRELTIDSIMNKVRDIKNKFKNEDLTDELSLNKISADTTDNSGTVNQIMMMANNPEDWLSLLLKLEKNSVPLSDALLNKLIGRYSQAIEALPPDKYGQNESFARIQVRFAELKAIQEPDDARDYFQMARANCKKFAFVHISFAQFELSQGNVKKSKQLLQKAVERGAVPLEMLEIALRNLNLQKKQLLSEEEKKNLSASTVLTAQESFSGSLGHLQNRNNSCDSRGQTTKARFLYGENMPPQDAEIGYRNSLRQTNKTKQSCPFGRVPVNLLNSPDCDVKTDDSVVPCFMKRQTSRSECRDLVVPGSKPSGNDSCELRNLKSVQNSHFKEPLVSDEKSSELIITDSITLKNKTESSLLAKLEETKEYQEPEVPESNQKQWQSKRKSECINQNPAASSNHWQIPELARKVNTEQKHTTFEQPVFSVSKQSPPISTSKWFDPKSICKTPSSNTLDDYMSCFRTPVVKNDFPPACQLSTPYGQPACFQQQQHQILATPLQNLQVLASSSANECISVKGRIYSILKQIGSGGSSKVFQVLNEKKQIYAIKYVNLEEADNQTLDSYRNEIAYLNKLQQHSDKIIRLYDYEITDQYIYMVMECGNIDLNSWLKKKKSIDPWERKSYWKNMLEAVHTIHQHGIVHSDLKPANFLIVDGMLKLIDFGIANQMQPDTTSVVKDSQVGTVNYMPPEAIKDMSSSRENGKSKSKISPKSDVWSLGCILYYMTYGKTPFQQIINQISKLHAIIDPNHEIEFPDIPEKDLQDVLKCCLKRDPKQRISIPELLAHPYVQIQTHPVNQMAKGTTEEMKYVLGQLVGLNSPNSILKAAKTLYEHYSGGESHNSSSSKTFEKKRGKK

With `CN(C(=O)CN1CCOCC1)c1ccc2sc3c(-c4cccc5c(=O)cc(N6CC7CCC(C6)O7)oc45)cccc3c2c1` [NU5455], the inhibition at 1 µM is -0.7%.
